Consider 6 molecules from patent US20210196654A1, “METHOD OF TREATING CONDITIONS” (Clexio Biosciences Ltd., priority 2019, published 2021).

Data set [1] is described as follows: Single dose crossover study in healthy volunteers, pharmacokinetics. The note with it: both, human, plasma; for AUC(0-inf): AUC0-inf; for AUC(0-inf) / AUC(0-t) / Cmax: geometric mean; for AUC(0-t): AUC0-t; for Cmax: 15 subjects; for half-life: t1/2, geometric mean; for Tmax: median. The source says:
A randomized, open-label 4-way crossover study in 16 healthy male and female subjects was held wherein said subjects were placed in a randomly assigned order and administered esketamine. Each subject was assigned to 1 of 4 treatment sequences according to a randomization code such that 4 subjects were assigned to each treatment sequence. There was a wash-out period of at least 7 days between dosing periods with doses consisting of either oral or intravenous esketamine hydrochloride. The study consisted of an eligibility screening period of 28 days, 4 study periods involving administration of a single dose of esketamine hydrochloride followed by safety assessments with blood sampling for PK purposes up to 72 hours after study drug administration, discharge at 72 hours after study drug administration and a follow-up visit 7-14 days after the last PK blood sample was taken on Day 4.

The subject of data set [2] is animal models of depression. The settings on record: cited from earlier work.
Data set [3] concerns human peripheral blood lymphocytes (HPBL). The procedure:
The clastogenic potential of (S)-norketamine was evaluated in the in vitro mammalian chromosome aberration test using human peripheral blood lymphocytes (HPBL) in both the absence and presence of an induced metabolic activation system (the 9000 g supernatant [S9] microsomal fraction of liver homogenate from rats exposed to phenobarbital/5,6-benzoflavone).
The study was conducted in 2 phases, with a preliminary toxicity test used to determine the appropriate concentrations for the definitive chromosomal aberration assay. Water was used as a negative (vehicle) control. In both phases, the cells were treated for 3 and 21 hours in the absence of S9 mix and for 3 hours in the presence of S9 mix. The mitotic index was assessed for all cultures to determine cytotoxicity. Ten concentrations, ranging from […], were evaluated in the preliminary toxicity test.

The test system is the same in data set [4]. The procedure:
The clastogenic potential of esketamine was evaluated in the in vitro mammalian chromosome aberration test using human peripheral blood lymphocytes (HPBL) in both the absence and presence of an induced metabolic activation system (the 9000 g supernatant [S9] microsomal fraction of liver homogenate from rats exposed to Aroclor-1254).
The study was conducted in 2 phases, with a preliminary toxicity test used to determine the appropriate concentrations for the definitive chromosomal aberration assay. Water was used as a negative (vehicle) control. Toxicity (defined as >45% reduction in MI relative to the vehicle control) was evaluated at 9 concentrations, ranging from 0.0238 to 238 μg/ml, after exposure of HPBL to esketamine for 20 hours in the absence of S9 activation, or for 4 hours, either in the presence or absence of S9 activation, followed by a 16-hour recovery period.
The definitive chromosome aberration assay evaluated HPBL cells after exposure to esketamine for 20 hours in the absence of S9 activation, or for 4 hours, either in the presence of absence of S9 activation, followed by a 16-hour recovery. Positive controls for chromosomal aberrations in non-activated and S9-activated evaluations, respectively, consisted of mitomycin C (MMC, 0.6 and 0.3 μg/mL for the 4- and 20-hour exposures, respectively) and cyclophosphamide (CP, 2.5, 5, and 7.5 μg/mL). […] Initially, the doses selected for evaluation of chromosomal aberrations were 60, 120, and 238 μg/mL for the non-activated 4- and 20-hour treatment conditions; and 30, 60, and 200 μg/mL for the S9-activated 4-hour treatment condition.
The source holds these as a separate data set.

Data set [5] has as its system Parkinson's disease sufferers. The settings on record: cited from earlier work.
For data set [6], the system named is bipolar disorder. The settings on record: intravenous; cited from earlier work.
For data set [7] the following is noted: Yanagihara et al (2003); cited from earlier work.
Data set [8] has as its system Generalized Anxiety and Social Anxiety Disorder patients. The settings on record: treatment-refractory patients; cited from earlier work.
In data set [9] the test system is chronic pain. The note with it: oral; cited from earlier work.
Where [10] appears, read: iv, 0.3 mg/kg, plasma analyte after single dose esketamine 0.3 mg/kg iv.
Where [11] appears, read: po, 20 mg, plasma analyte after single dose esketamine 20 mg oral solution.
Setting [12] is: po, 20 mg, plasma analyte after single dose esketamine 20 mg oral tablet.
Setting [13] is: po, 100 mg, plasma analyte after single dose esketamine 100 mg oral tablet.
Setting [14] is: S9-activated system, positive control.

The term AUC(0-inf) denotes total exposure, with the tail of the curve extrapolated. Low readings indicate less exposure, high ones more exposure. Usually AUC(0-t) stands for the area under the concentration-time curve up to a stated or last time point. Low values mean less exposure, high ones more exposure. What is called Cmax is the peak of the concentration-time curve. Broadly, the half-life is how long it takes for the measured level to halve. A lower half-life goes with fast loss. As usually defined, the Tmax is the time from dosing to the highest level.

Like-named read-outs stand apart in the source and are kept apart here.

In [1] (setting [10]), `N[C@]1(c2ccccc2Cl)CCC[C@H](O)C1=O` [(2S,6S)-OH-Norketamine, (2S,6S)-2-Amino-2-(2-chlorophenyl)-6-hydroxycyclohexanone] gave an area under the curve AUC(0-inf) of 390 ng·h/mL, an exposure AUC(0-t) of 376 ng·h/mL, a Cmax of 24.8 ng/mL and a half-life of 10.7 h. Besides, the Tmax in data set [1] (setting [10]) amounted to 3 h. In data set [1] (setting [11]), this molecule gave an AUC(0-inf) of 378 ng·h/mL, an AUC(0-t) of 366 ng·h/mL, a Cmax of 46.5 ng/mL and a half-life of 7.83 h. Further, in data set [1] (setting [11]), the Tmax was determined as 1 h. In data set [1] (setting [12]), this molecule had an AUC(0-inf) of 401 ng·h/mL, an AUC(0-t) of 390 ng·h/mL, a maximum concentration (Cmax) of 45.8 ng/mL and a half-life of 7.77 h. For the same molecule, the Tmax in [1] (setting [12]) was 1.5 h. Also, in data set [1] (setting [13]), the area under the curve AUC(0-inf) was 1960 ng·h/mL, the AUC(0-t) was found to be 1950 ng·h/mL, the peak concentration (Cmax) is 189 ng/mL and the half-life was 8.92 h. The Tmax in data set [1] (setting [13]) was 2 h.

`CN[C@@]1(c2ccccc2Cl)CCCCC1=O` [(R)-ketamine, (2R)-2-(2-Chlorophenyl)-2-(methylamino) cyclohexanone]: the “antidepressant effects compared with esketamine” value in [2] is “greater potency and longer-lasting antidepressant effects than esketamine”.

Regarding `N[C@]1(c2ccccc2Cl)CCCCC1=O` [(S)-norketamine, (2S)-2-(2-Chlorophenyl)-2-(amino) cyclohexanone], in data set [3], the “Toxicity (mitotic index), preliminary toxicity test” value was “not observed at any dose”; the “clastogenicity, conclusion” value is recorded as “non-clastogenic”; the “proportion of metaphase figures containing chromosomal aberrations vs vehicle control” value is on record as “no statistically significant increases”. For the same molecule, in [3] (any treatment condition), the “proportion of polyploid or endoreduplicated metaphase cells vs vehicle control” value is recorded as “No statistically significant increases”. In data set [1] (setting [10]), this molecule gave an AUC(0-inf) of 441 ng·h/mL, an AUC(0-t) of 426 ng·h/mL, a Cmax of 42.2 ng/mL and a half-life of 11.3 h. Further, the Tmax in [1] (setting [10]) is 1.25 h. In [1] (setting [11]), this molecule had an area under the curve AUC(0-inf) of 417 ng·h/mL, an exposure AUC(0-t) of 405 ng·h/mL, a Cmax of 99.8 ng/mL and a half-life of 8.88 h. For the same molecule, the Tmax in data set [1] (setting [11]) was 0.75 h. Moreover, in [1] (setting [12]), the AUC(0-inf) is 429 ng·h/mL, the AUC(0-t) is 418 ng·h/mL, the Cmax is 89.7 ng/mL and the half-life was 8.75 h. Further, the Tmax in data set [1] (setting [12]) was determined as 1 h. In [1] (setting [13]), this molecule showed an AUC(0-inf) of 2280 ng·h/mL, an AUC(0-t) of 2270 ng·h/mL, a Cmax of 352 ng/mL and a half-life of 9.27 h. Moreover, in data set [1] (setting [13]), the Tmax came to 1 h.

For the molecule `O=P1(N(CCCl)CCCl)NCCCO1` (centres unmarked) [CP, cyclophosphamide], in data set [4] (setting [14]), the “cells with structural aberrations” value is on record as 10.7% and the “mean MI value” is given as 6.2%. Further, in data set [3] (positive control compounds), the “proportion of aberrant cells” value is “statistically significant increases”.

For the molecule `CO[C@@]12[C@H](COC(N)=O)C3=C(C(=O)C(C)=C(N)C3=O)N1C[C@@H]1N[C@@H]12` [MMC, mitomycin C], the “cells with structural chromosomal aberrations” value in data set [4] was found to be 13.3%. Moreover, in data set [4] (non-activated systems, positive control), the “mean MI value” is given as 9%. In addition, the “proportion of aberrant cells” value in data set [3] was “statistically significant increases”.

Take `CNC1(c2ccccc2Cl)CCCCC1=O` (stereo not drawn) [ketamine, dl 2-(2-chlorophenyl)-2(methylamino) cyclohexanone]: in [5], the levodopa induced dyskinesia result is “could reduce levodopa induced dyskinesia”. Besides, in data set [6], the “effect in bipolar disorder” value was “robust and rapid effect”. Also, the nasal bioavailability in data set [7] is 45%. Also, the anxiety ratings result in data set [8] is reported as “improvement in anxiety ratings within an hour of ketamine dosing which persisted for up to a week”. The chronic pain result in data set [9] was “could reduce chronic pain”.
